The source of these data is patent US12448388B2, “PRMT5 inhibitors and uses thereof” (Gilead Sciences, Inc., priority 2023, dated 2025).

Each structure is given as a SMILES string. In brackets after ≈: the same amount, converted by molar mass.

In data set [1] the test system is HCT116 MTAP-deleted cell lines. Description: Cell viability assay (CellTiter-Glo, 7 days), HCT116 MTAP-deleted. Format: cell-based. Conditions: for Selectivity: HCT116 WT CC50 versus HCT116 MTAP^del CC50; for plasma-adjusted CC50 (paCC50): HCT-116, paCC50 = CC50-HCT116-MTAP^del * (% free CCM/% free human plasma); for CC50: Homo sapiens, HCT-116, 168 h, HCT116 MTAP-deleted, 7 days of treatment, CTG, read-out: CC50-HCT116-MTAP^del. The essentials: (§1)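 CC50 values come from 7-day CellTiter-Glo viability measurements on cells exposed to a dose range of PRMT5 inhibitors dispensed from DMSO stocks.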

Data set [2] is described as follows: Cell viability assay (CellTiter-Glo, 7 days), HCT116 WT. Conditions: human, HCT116 WT cells, 7 days of treatment, CTG. The format is cell-based. The essentials:
as §1

Data set [3] is described as follows: MDR1/BCRP assay: permeability in cPgp-KO-MDCK-WT cells. Conditions: dog, pH 7.4. The format is in vitro ADME. The essentials:
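Compounds at 1 μM were dosed apically or basolaterally on 5-day confluent cPgp-KO-MDCK monolayers, HBSS/HEPES/glucose pH 7.4 donor and receiver with 1% BSA, duplicate wells. Receiver samples at 2 h were analysed by LC-MS/MS to give A→B and B→A Papp plus % recovery; TEER confirmed integrity.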

Data set [4] is described as follows: PBS solubility (kinetic solubility from DMSO stocks). The format is physicochemical. Conditions: 22 °C, aqueous buffer, kinetic from dmso stock; 1x PBS pH 7.4, 1.0% DMSO, 24-hour incubation at ambient temperature. The essentials:
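Kinetic solubility in 1× PBS pH 7.4 with 1.0% final DMSO, maximum theoretical concentration 100 μM from 10 mM stock. After 24 h at ambient temperature (20.8-24.0 °C) the samples were vacuum-filtered and filtrates quantified by nitrogen detection against a calibration curve. Values were background-corrected and reported in μM and μg/mL.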

Data set [5] can be described thus: Hepatocyte stability assay, human. The format is in vitro ADME. Conditions: human hepatocytes, 1 μM. Here is the method: BioreclamationIVT (Baltimore, MD) provided the cryopreserved hepatocytes, hepatocyte thawing (HT) medium, and Krebs-Henseleit buffer (KHB) medium. The stock solution concentration was 1 M in DMSO and was then diluted further in acetonitrile/water (1:1 v/v). All other chemicals were purchased from Sigma-Aldrich (St. Louis, MO) or Thermo Fisher Scientific (Waltham, MA).
The quench solution used to stop reactions in the hepatocyte incubations was comprised of 100% (v/v) acetonitrile. Internal Standard/Quench (IS/Q) solution used to stop reactions with the positive control also contained 200 nM Labetalol.
Metabolic Stability in Cryopreserved Hepatocytes: Test compounds, or the positive control metabolic substrate, was incubated in suspensions of cryopreserved hepatocytes at a final concentration of 1 μM. Vials containing cryopreserved hepatocytes were removed from liquid nitrogen and immediately immersed in a 37° C. water bath. The vials were swirled gently until the contents had thawed. They were then immediately emptied into 48 mL of pre-warmed thawing medium in a 50 mL conical tube. Cells remaining in the vial were re-suspended with 1.0 mL of pre-warmed thawing medium and added to the conical tube. The tube was capped and then gently inverted several times to re-suspend the hepatocytes. The cell suspension was centrifuged at 500×g for 10 minutes at room temperature and the supernatant discarded. The cell pellet was loosened by gently swirling the centrifuge tube. Non-supplemented KHB medium was added to obtain the appropriate target cell density. The viabilities of all cell preparations were ≥85%, assessed by Trypan blue dye exclusion.
For incubations, aliquots of hepatocyte suspension (250 μL containing a cell concentration of 2×10^6 cells/mL) were added to 250 μL of 2 μM substrate (test compound or positive control) in supplemented KHB in duplicate wells in a 24-well plate. Final concentration in the incubations were 1×10^6 cells/mL and 1 μM substrate. A cell-free control incubation (KHB only) was also included. The incubations were carried out with gentle shaking in a 37° C. incubator under a humid atmosphere of 95% air/5% CO2 (v/v). Aliquots (100 μL) were removed after 0, 1, 3, and 6 hours and added to 200 μL quenching solution. The samples were then placed on a shaker for 10 min followed by centrifugation at 3000×g for 20 min. The supernatant was transferred to a new plate and diluted with 100 μL of water to reduce the organic content and then placed on a shaker for 10 mins. Samples were injected and analyzed with methods described below.
Liquid Chromatography: Quantification of positive control and test compound was performed by analyte/internal standard peak area ratios (PAR) measured on a Thermo Scientific™ Q Exactive™ Hybrid Quadrupole-Orbitrap Mass Spectrometer MS/MS with an electrospray interface operating in positive ion mode. The mass spectrometer was coupled to a Dionex Ultimate® 3000 HPLC system. Samples (10 μL aliquots) were injected with a Leap Technologies HTC PAL autosampler. For positive control, the column used was a Thermo Scientific™ Hypersil GOLD™ HPLC column ([…], 50×2.1 mm). Mobile phase A consisted of 95% (v/v) water, 5% (v/v) acetonitrile, and contained 0.1% (v/v) formic acid (FA). Mobile phase B consisted of 95% (v/v) acetonitrile, 5% (v/v) water, and contained 0.1% (v/v) FA. Elution was achieved, at a flow rate of 0.5 mL/min, by a series of linear gradients: initial condition was 5% B at 0 min, isocratic for 20 seconds; then linear gradient to 95% B over 90 seconds, followed by isocratic for 60 seconds at 95% B, and re-equilibrated to initial conditions over 70 seconds.
Metabolic stabilities of positive control and test compound were determined by measuring the rates of disappearance of the parent with time by determining the % of parent remaining at time t (Ct) {Obach 1997}.
Data (% of parent remaining) were plotted on a semi-log scale and fitted using an exponential fit: […]

As to `Cc1ncc2c(N)nc3cnc(C(=O)N4CC[C@H]5C[C@@H]4c4cc(F)c(C(F)(F)F)cc4O5)cc3n12` [Ff-696, (4-amino-1-methylimidazo[1,5-a]pyrido[3,4-e]pyrazin-8-yl)((2S,6R)-8-fluoro-9-(trifluoromethyl)-3,4-dihydro-2H-2,6-methanobenzo[b][1,5]oxazocin-5(6H)-yl)methanone], in data set [1], the Selectivity was 83, the plasma-adjusted CC50 (paCC50) worked out at 198 nM and the CC50 was found to be 17 nM. The CC50 at 7 days in data set [2] worked out at 1410 nM. Also, the Papp A→B at 2 h, 1 µM in data set [3] amounted to 21 ×10⁻⁶ cm/s. In data set [4], this compound displayed a solubility at 24 h of 2.9 µM (≈ 1.41 µg/mL). Also, the “Human Predicted Hepatocyte CL” value in data set [5] was 4.5 mL/min/kg.

As to `Cc1ncc2c(N)nc3cnc(C(=O)N4CCC[C@@H]5Oc6cc(OC(F)(F)F)cc(F)c6[C@@H]54)cc3n12` [Fg-66, (4-amino-1-methylimidazo[1,5-a]pyrido[3,4-e]pyrazin-8-yl)((4aS,9bS)-9-fluoro-7-(trifluoromethoxy)-3,4,4a,9b-tetrahydrobenzofuro[3,2-b]867yridine-1(2H)-yl)methanone], in data set [1], the Selectivity is listed as 116, the plasma-adjusted CC50 (paCC50) was found to be 788 nM and the cytotoxic concentration (CC50) worked out at 72 nM. The compound also displayed a CC50 at 7 days in data set [2] of 8370 nM. Further, the Papp A→B at 2 h, 1 µM in data set [3] is 19.3 ×10⁻⁶ cm/s. Further, the solubility at 24 h in data set [4] is below 1 µM. Also, the “Human Predicted Hepatocyte CL” value in data set [5] was 4.67 mL/min/kg.

For `Cc1ncc2c(N)nc3cnc(C(=O)N4CCC[C@@H]5Oc6cc(C(F)(F)F)cc(F)c6[C@@H]54)cc3n12` [Fg-67, (4-amino-1-methylimidazo[1,5-a]pyrido[3,4-e]pyrazin-8-yl)((4aS,9bS)-9-fluoro-7-(trifluoromethyl)-3,4,4a,9b-tetrahydrobenzofuro[3,2-b]pyridin-1(2H)-yl)methanone], in data set [1], the Selectivity is 112, the plasma-adjusted CC50 (paCC50) was 402 nM and the CC50 turned out to be 38 nM. Also, in data set [2], the CC50 at 7 days stood at 4260 nM. The compound further came in with a Papp A→B at 2 h, 1 µM in data set [3] of 18.5 ×10⁻⁶ cm/s. In addition, the concentration in solution in data set [4] (solubility at 24 h) was 1.7 µM (≈ 0.827 µg/mL). The “Human Predicted Hepatocyte CL” value in data set [5] was 4 mL/min/kg.
